Assays:
EphA8(h) = EphA8(h) (Homo sapiens, UniProt P29322); assay: Kinase Profiler; assay type: biochemical
Procedure: (§1) Blood cell counts, kinase profiler, safety screen, bacterial cytotoxicity, Ames, micronucleus assays were performed by the company Eurofins (France). The kinase profiler was performed by the company Eurofins (Discovery, Panlab and Cerep).

Tie2 (h) = Tie2 (h) (Homo sapiens, UniProt Q02763); assay: Kinase Profiler; assay type: biochemical
Procedure: as §1

Dopamine D2L = Dopamine D2L (Homo sapiens, UniProt P14416); assay: Safety screen; assay type: binding
Procedure: (§2) Blood cell counts, kinase profiler, safety screen, bacterial cytotoxicity, Ames, micronucleus assays were performed by the company Eurofins (France).

CaMKIγ(h) = CaMKIγ(h) (Homo sapiens, UniProt Q96NX5); assay: Kinase Profiler; assay type: biochemical
Procedure: (§3) The kinase profiler was performed by the company Eurofins (Discovery, Panlab and Cerep).

Tie2(R849W)(h) = Tie2(R849W)(h) (Homo sapiens, UniProt Q02763, R849W); assay: Kinase Profiler; assay type: biochemical
Procedure: as §1

NIH/3T3 cell migration = assay: 1D cell migration (CYTOO plates); assay type: cell-based; details: 10^-5 M
Procedure: NIH3T3cells (1000/well) were seeded in a 96 well plate with […] fibronectin stripes (CytooPlates Motility, CYTOO) in medium with 1% SVF and allowed to spread for 4 h before capturing time-lapse images for 24 h (image/10 min) on a Widefield Leica DMI 6000B drove with Metamorph software. Cells speed was measured with ImageJ software.
Supplementary Fig. 3: Example of one pharmacophore model used for virtual screening. (a) The pharmacophore model shown was created based on RAC1 (grey) and NSC23766 (orange) interaction. The pharmacophore model is formed by two hydrogenbond acceptor(HBA)features,one orientedtowardsthe hydroxylgroup of Ser71 (S71) and the other towards the amine group of Gln74 (Q74), one hydrogen bond donor (HBD) feature pointed to the oxygenatom of Leu70 (L70) and two hydrophobic features (HY) located on certain carbon atoms of NSC23766 and facing residues Val36 (V36), Ala59 (A59), Tyr64 (Y64) and Leu67 (L67). The spheres correspond to locationconstraint. […] (b) Impact of different screening molecules (10^-5 M) on NIH/3T3 cell adhesion (xCELLingence Real-time cellanalysis, Agilent), migration (CYTOO Mobility plates) and proliferation (xCELLingence Real-time cell analysis, Agilent) .The level of RAC activation is determinedby the detection of RAC-GTP (pull-down assay) in NIH/3T3 cell treated with EGF (10 ng/mL) and the differentmolecules and normalize to the level of RAC activity measuredin the presenceof the reference RAC inhibitor EHT1864.
Supplementary Fig. 4: A41 inhibits RAC-dependent cell functions. (a) Representative records of single NIH/3T3 cell migration on micropatterned fibronectin lines (CYTOO Mobility plates) in the absence (Control)and presenceA41 at 10^-5 M (left panel) and corresponding quantification of migration speed (right panel) (scale bar: 20µm). […] (b) Typical curves showing the cell index representing the adhesion of NIH/3T3 fibroblast (xCELLingence Real-time cell analysis, Agilent) under control condition (Control) and pre-treated with 10 µM A41 or NSC23766 (left panel) and corresponding quantification of cell adhesion speed (right panel). […]

Phosphodiesterase PDE4 = assay: Safety screen; assay type: biochemical, human
Procedure: as §2

Melanocortin MC4 = Melanocortin MC4 (Homo sapiens, UniProt P32245); assay: Safety screen; assay type: binding
Chain of Melanocortin MC4 (P32245 whole entry): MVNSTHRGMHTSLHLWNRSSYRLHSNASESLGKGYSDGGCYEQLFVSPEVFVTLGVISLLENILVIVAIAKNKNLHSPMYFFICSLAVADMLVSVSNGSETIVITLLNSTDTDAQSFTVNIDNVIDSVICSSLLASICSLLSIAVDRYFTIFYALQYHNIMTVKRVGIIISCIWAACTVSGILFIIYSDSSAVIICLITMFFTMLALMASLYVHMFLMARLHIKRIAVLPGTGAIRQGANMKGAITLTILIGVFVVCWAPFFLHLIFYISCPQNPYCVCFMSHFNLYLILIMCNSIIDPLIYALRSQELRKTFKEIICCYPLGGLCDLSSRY
Procedure: as §2

c-RAF(h) = c-RAF(h) (Homo sapiens, UniProt P04049); assay: Kinase Profiler; assay type: biochemical
Chain of c-RAF(h) (P04049 whole entry): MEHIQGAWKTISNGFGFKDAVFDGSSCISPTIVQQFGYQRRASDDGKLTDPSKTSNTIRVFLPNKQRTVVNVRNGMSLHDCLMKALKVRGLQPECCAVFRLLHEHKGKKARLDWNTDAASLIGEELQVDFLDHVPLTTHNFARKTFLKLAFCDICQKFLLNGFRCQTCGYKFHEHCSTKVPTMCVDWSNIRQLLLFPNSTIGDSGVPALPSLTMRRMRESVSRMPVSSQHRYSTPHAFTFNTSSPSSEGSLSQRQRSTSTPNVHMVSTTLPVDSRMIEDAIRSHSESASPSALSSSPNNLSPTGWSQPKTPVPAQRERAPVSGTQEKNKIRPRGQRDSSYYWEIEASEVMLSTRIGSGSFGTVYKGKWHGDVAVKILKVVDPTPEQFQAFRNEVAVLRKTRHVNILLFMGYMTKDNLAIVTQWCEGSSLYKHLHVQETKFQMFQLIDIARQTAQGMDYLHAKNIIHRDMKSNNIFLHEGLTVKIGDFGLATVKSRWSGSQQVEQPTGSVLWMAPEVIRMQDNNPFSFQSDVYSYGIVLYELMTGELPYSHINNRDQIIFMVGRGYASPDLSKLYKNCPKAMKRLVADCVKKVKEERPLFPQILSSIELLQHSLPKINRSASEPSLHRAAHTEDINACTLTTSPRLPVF
Procedure: as §3

CDK16/cyclinY(h) = CDK16/cyclinY(h) (Homo sapiens, UniProt Q00536); assay: Kinase Profiler; assay type: biochemical
Chain of CDK16/cyclinY(h) (Q00536 whole entry): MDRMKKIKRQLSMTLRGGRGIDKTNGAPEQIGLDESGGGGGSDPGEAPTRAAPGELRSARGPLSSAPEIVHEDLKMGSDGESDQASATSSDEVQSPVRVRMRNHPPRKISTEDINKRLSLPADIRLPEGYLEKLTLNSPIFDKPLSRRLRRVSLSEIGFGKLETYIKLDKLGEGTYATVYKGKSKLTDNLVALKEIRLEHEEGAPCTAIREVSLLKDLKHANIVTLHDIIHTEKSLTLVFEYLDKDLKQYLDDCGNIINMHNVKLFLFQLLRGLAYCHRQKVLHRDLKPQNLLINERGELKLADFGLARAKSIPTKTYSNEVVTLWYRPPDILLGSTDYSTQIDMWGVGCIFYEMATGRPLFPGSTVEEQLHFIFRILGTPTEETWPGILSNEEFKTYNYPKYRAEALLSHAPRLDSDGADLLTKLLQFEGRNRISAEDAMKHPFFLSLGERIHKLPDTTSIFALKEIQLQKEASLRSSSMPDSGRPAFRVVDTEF
Chain of CDK16/cyclinY(h) (Q8ND76 whole entry partner): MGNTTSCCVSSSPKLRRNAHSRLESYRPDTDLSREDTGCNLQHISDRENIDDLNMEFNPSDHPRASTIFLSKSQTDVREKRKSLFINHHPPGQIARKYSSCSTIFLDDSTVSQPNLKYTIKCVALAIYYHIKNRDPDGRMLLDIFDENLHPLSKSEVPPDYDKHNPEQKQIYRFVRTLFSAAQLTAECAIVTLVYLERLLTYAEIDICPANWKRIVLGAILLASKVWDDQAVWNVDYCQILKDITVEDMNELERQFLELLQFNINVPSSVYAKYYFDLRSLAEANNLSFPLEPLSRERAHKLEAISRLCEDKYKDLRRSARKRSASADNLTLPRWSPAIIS
Procedure: as §1

Plk1(h) = Plk1(h) (Homo sapiens, UniProt P53350); assay: Kinase Profiler; assay type: biochemical
Chain of Plk1(h) (P53350 whole entry): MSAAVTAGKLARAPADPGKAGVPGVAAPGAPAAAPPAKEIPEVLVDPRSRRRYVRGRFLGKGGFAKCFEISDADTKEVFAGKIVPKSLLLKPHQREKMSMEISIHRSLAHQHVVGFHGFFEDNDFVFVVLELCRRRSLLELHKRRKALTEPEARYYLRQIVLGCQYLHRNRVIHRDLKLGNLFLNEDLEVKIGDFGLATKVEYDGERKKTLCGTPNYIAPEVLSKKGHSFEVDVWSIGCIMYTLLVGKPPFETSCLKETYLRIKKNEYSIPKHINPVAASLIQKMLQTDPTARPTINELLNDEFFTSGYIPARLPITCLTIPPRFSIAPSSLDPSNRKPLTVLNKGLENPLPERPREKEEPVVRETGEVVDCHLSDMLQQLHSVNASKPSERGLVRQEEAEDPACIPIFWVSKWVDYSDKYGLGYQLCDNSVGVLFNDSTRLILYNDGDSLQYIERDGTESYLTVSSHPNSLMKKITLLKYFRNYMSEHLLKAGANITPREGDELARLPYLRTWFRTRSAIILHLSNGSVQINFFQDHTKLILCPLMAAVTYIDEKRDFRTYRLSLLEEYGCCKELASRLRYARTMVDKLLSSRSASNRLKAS
Procedure: as §3

MAPKAP-K2(h) = MAPKAP-K2(h) (Homo sapiens, UniProt P49137); assay: Kinase Profiler; assay type: biochemical
Chain of MAPKAP-K2(h) (P49137 whole entry): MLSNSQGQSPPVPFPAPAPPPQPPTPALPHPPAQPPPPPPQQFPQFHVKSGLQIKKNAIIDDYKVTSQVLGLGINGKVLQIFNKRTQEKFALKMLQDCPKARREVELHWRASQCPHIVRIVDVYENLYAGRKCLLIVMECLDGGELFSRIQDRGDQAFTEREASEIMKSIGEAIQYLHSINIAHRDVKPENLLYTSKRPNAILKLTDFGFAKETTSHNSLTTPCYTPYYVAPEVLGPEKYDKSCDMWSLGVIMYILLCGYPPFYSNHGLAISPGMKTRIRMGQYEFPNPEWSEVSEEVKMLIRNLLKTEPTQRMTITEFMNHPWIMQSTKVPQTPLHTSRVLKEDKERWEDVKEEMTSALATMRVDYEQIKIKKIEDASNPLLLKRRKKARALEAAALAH
Procedure: as §3

CK1γ2(h) = CK1γ2(h) (Homo sapiens, UniProt P78368); assay: Kinase Profiler; assay type: biochemical
Chain of CK1γ2(h) (P78368 whole entry): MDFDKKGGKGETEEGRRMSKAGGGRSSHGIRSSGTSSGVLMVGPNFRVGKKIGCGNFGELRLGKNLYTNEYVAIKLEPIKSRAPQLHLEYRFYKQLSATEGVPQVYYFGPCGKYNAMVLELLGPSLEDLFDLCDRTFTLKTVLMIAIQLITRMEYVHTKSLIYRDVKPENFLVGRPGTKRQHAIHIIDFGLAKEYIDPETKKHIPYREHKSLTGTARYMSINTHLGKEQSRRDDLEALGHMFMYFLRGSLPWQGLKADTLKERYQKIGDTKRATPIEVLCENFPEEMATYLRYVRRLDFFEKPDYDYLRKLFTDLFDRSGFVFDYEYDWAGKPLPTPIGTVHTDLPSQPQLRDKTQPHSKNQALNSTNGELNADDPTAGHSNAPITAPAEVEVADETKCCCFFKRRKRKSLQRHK
Procedure: as §1

[1] = target: Cholinesterase, Acetyl, ACES (Homo sapiens, UniProt P22303)
Chain of Cholinesterase, Acetyl, ACES (P22303 32-614): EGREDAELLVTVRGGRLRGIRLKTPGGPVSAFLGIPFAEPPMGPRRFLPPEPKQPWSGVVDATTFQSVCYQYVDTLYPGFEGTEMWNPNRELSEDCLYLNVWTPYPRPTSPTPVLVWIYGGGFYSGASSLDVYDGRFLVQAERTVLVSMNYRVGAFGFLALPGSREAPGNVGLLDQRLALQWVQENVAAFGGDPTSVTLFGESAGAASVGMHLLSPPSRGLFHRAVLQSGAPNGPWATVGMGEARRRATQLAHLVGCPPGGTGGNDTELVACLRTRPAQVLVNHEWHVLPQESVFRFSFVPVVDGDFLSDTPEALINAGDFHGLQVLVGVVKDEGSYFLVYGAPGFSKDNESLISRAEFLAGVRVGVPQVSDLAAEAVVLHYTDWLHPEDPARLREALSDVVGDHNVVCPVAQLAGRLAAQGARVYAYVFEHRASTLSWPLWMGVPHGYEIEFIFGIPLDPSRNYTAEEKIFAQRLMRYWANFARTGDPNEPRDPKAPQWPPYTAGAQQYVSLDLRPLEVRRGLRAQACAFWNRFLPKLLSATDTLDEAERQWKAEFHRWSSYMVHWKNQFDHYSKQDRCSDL
Procedure: as §1

MEK2(h) = MEK2(h) (Homo sapiens, UniProt P36507); assay: Kinase Profiler; assay type: biochemical
Procedure: as §3

CaMKIδ(h) = CaMKIδ(h) (Homo sapiens, UniProt Q8IU85); assay: Kinase Profiler; assay type: biochemical
Procedure: as §3

STK16(h) = STK16(h) (Homo sapiens, UniProt O75716); assay: Kinase Profiler; assay type: biochemical
Procedure: as §3

Chain of Dopamine D2L (P14416 whole entry): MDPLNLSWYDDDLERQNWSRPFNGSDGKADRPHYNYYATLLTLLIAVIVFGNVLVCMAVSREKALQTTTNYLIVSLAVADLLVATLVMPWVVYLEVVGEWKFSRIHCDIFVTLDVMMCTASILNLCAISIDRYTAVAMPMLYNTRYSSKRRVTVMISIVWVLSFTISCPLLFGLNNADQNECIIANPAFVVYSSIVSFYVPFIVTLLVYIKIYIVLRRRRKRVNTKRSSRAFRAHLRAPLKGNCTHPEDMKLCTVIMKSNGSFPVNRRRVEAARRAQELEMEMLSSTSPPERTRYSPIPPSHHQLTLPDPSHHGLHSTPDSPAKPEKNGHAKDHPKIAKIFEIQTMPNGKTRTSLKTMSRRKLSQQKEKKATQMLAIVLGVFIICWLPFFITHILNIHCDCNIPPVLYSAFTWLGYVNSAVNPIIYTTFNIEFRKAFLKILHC
Chain of CaMKIγ(h) (Q96NX5 whole entry): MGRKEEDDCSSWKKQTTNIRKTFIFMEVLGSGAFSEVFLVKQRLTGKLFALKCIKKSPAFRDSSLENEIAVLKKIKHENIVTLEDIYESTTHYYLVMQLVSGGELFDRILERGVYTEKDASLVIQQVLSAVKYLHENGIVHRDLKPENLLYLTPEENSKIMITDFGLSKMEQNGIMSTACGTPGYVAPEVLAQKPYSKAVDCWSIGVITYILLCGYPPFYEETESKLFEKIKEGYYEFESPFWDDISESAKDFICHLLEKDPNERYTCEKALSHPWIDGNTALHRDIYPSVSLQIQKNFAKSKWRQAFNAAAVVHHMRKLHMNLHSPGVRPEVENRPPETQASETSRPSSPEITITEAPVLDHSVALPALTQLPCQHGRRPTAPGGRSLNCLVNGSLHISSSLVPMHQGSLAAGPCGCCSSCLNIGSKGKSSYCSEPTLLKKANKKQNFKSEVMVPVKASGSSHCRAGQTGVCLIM

COc1ccc(OC)c(NS(=O)(=O)c2ccc(NC(=O)CCSc3ccc(C)cc3)cc2)c1 [Compound A41]
Activity(%) (EphA8(h)): 112%
Activity(%) (Tie2 (h)): 110%
% inh. (Dopamine D2L): 9%
Activity(%) (CaMKIγ(h)): 121%
Activity(%) (Tie2(R849W)(h)): 101%
cell migration (NIH/3T3 cell migration): efficiently inhibited both functions
% inh. (Phosphodiesterase PDE4): 4%
% inh. (Melanocortin MC4): 8%
Activity(%) (c-RAF(h)): 93%
Activity(%) (CDK16/cyclinY(h)): 107%
Activity(%) (Plk1(h)): 106%
Activity(%) (MAPKAP-K2(h)): 111%
Activity(%) (CK1γ2(h)): 112%
% inh. [1]: 64%
Activity(%) (MEK2(h)): 109%
Activity(%) (CaMKIδ(h)): 94%
Activity(%) (STK16(h)): 115%

Reference: publication PMC12281424, “A Rac-specific competitive inhibitor of guanine nucleotide binding reduces metastasis in triple-negative breast cancer” (Cell Reports Medicine, 2025)
